Reference: patent US20100113421A1, “NON-NUCLEOSIDE REVERSE TRANSCRIPTASE INHIBITORS” (priority 2006, published 2010)

System: HIV strain containing the Y181C mutation
Test: Spread assay, Y181C mutant strain
Type: cell-based
Details: Human immunodeficiency virus 1; spread assay, 10% FBS, Y181C mutant strain; read-out: CIC95
Method: Assays for the inhibition of acute HIV-1 infection of T-lymphoid cells (alternatively referred to herein as the “spread assay”) were conducted in accordance with Vacca, J. P. et al., Proc. Natl. Acad. Sci. USA 1994, 91: 4096. The assays (using 10% FBS) tested for inhibition of wild type HIV-1 and of HIV strains containing the Y181C or K103N mutation. […] (Note that the compound of Example 6 was tested only up to a 833 nM concentration and the CIC95 value was determined to be >833 nM. The compound of Example 78 was not tested in the Y1818C assay.) The compounds of Examples 1 to 119 (including Examples 70A and 70B) had CIC95 values of less than 1000 nanomolar in the assay employing the K103N mutant strain. In an analogous assay employing a mutant strain containing both the K103N and Y181C mutations, the compounds of Examples 70A, 70B and 78-115 had CIC95 values of less than 1000 nanomolar.

| Compound | IC95 |
| --- | --- |
| Cc1c(C(=O)N(C)Cc2ccccc2Cl)[nH]c(C(=O)NCc2ccccn2)c1S(=O)(=O)N1CCCC1 [Example 117, N-(2-chlorobenzyl)-N,3-dimethyl-N′-(2-pyridinylmethyl)-4-(1-pyrrolidinylsulfonyl)-1H-pyrrole-2,5-dicarboxamide] | < 8 µM |
| Cc1c(C(=O)N(C)Cc2ccc(Cl)cc2Cl)[nH]c(C(N)=O)c1S(=O)(=O)c1cc(Cl)cc(Cl)c1 [Example 2, N-(2,4-Dichlorobenzyl)-4-[(3,5-dichlorophenyl)sulfonyl]-N,3-dimethyl-1H-pyrrole-2,5-dicarboxamide] | < 8 µM |
| Cc1c(C(=O)N(C)Cc2ccc(Cl)cc2F)[nH]c(C(N)=O)c1S(=O)(=O)c1cccc(F)c1 [Example 18, N-(4-chloro-2-fluorobenzyl)-N,3-dimethyl-4-(3-fluorophenylsulfonyl)-1H-pyrrole-2,5-dicarboxamide] | < 8 µM |
| Cc1c(C(=O)N(C)Cc2ccc(Cl)cc2Cl)[nH]c(C(=O)NCc2cccnc2)c1S(=O)(=O)c1ccccc1 [Example 75, N-(2,4-dichlorobenzyl)-N,3-dimethyl-4-(phenylsulfonyl)-N′-(3-pyridinylmethyl)-1H-pyrrole-2,5-dicarboxamide] | < 8 µM |
| Cc1c(C(=O)N(C)Cc2cc3cccnc3cc2Cl)[nH]c(C(N)=O)c1S(=O)(=O)c1ccccc1 [Example 41, N-[(7-Chloro-6-quinolinyl)methyl]-N,3-dimethyl-4-(phenylsulfonyl)-1H-pyrrole-2,5-dicarboxamide] | < 8 µM |
| CCCCc1c(C(=O)N(C)Cc2ccc3ncccc3c2)[nH]c(C(N)=O)c1S(=O)(=O)c1ccccc1 [Example 66, 3-butyl-N-methyl-4-(phenylsulfonyl)-N-(6-quinolinylmethyl)-1H-pyrrole-2,5-dicarboxamide] | < 8 µM |
| CC(C)c1c(C(=O)N(C)Cc2ccccc2F)[nH]c(C(N)=O)c1S(=O)(=O)c1ccccc1 [Example 61, N-(2-fluorobenzyl)-3-isopropyl-N-methyl-4-(phenylsulfonyl)-1H-pyrrole-2,5-dicarboxamide] | < 8 µM |
| Cc1cccc(S(=O)(=O)c2c(C(N)=O)[nH]c(C(=O)N(C)Cc3ccc4ncccc4c3)c2C)c1 [Example 44] | < 8 µM |
| Cc1c(C(=O)N(C)Cc2ccccc2Cl)[nH]c(C(N)=O)c1S(=O)(=O)c1cccc2ccccc12 [Example 5, N-(2-Chlorobenzyl)-N,3-dimethyl-4-(1-naphthylsulfonyl)-1H-pyrrole-2,5-dicarboxamide] | < 8 µM |
| Cc1c(C(=O)N(C)Cc2ccncc2Cl)[nH]c(C(N)=O)c1S(=O)(=O)c1ccccc1 [Example 39, N-[(3-chloro-4-pyridinyl)methyl]-N,3-dimethyl-4-(phenylsulfonyl)-1H-pyrrole-2,5-dicarboxamide] | < 8 µM |
| Cc1c(C(=O)N(C)Cc2ccc(Cl)cc2Cl)[nH]c(C(=O)NCc2ccccn2)c1S(=O)(=O)c1ccccc1 [Example 74, N-(2,4-dichlorobenzyl)-N,3-dimethyl-4-(phenylsulfonyl)-N′-(2-pyridinylmethyl)-1H-pyrrole-2,5-dicarboxamide] | < 8 µM |
| CCCCc1c(C(=O)N(C)Cc2ccc3ncccc3c2)[nH]c(C(N)=O)c1S(=O)(=O)c1cccc(C)c1 [Example 67, 3-butyl-N-methyl-4-(3-methylphenylsulfonyl)-N-(6-quinolinylmethyl)-1H-pyrrole-2,5-dicarboxamide] | < 8 µM |
| Cc1c(C(=O)N(C)Cc2ccc(Cl)cc2F)[nH]c(C(N)=O)c1S(=O)(=O)c1cc(F)cc(Cl)c1 [Example 31, N-(4-chloro-2-fluorobenzyl)-N,3-dimethyl-4-(3-chloro-5-fluorophenylsulfonyl)-1H-pyrrole-2,5-dicarboxamide] | < 8 µM |
| Cc1c(C(=O)N(C)Cc2ccccc2)[nH]c(C(N)=O)c1S(=O)(=O)c1cccc(C(F)(F)F)c1 [Example 22, N-benzyl-N,3-dimethyl-4-(3-trifluoromethylphenylsulfonyl)-1H-pyrrole-2,5-dicarboxamide] | < 8 µM |
| CC(C)c1c(C(=O)N(C)Cc2ccc3ncccc3c2)[nH]c(C(N)=O)c1S(=O)(=O)c1ccccc1 [Example 64, 3-isopropyl-N-methyl-4-(phenylsulfonyl)-N-(6-quinolinylmethyl)-1H-pyrrole-2,5-dicarboxamide] | < 8 µM |
| Cc1c(C(=O)N(C)Cc2ccccc2Cl)[nH]c(C(N)=O)c1S(=O)(=O)c1cc(Cl)cc(Cl)c1 [Example 34, N-(2-chlorobenzyl)-N,3-dimethyl-4-(3,5-dichlorophenylsulfonyl)-1H-pyrrole-2,5-dicarboxamide] | < 8 µM |
| Cc1c(C(=O)N(C)Cc2ccc3ncccc3c2)[nH]c(C(N)=O)c1S(=O)(=O)c1cc(F)cc(Cl)c1 [Example 51, 4-[(3-chloro-5-fluorophenyl)sulfonyl]-N,3-dimethyl-N-(6-quinolinylmethyl)-1H-pyrrole-2,5-dicarboxamide] | < 8 µM |
| Cc1cc(C)cc(S(=O)(=O)c2c(C(N)=O)[nH]c(C(=O)N(C)Cc3ccccc3)c2C)c1 [Example 3, N-Benzyl-N,3-dimethyl-4-(3,5-dimethylphenylsulfonyl)-1H-pyrrole-2,5-dicarboxamide] | < 8 µM |
| Cc1c(C(=O)N(C)Cc2ccc(F)cc2Cl)[nH]c(C(N)=O)c1S(=O)(=O)c1ccccc1 [Example 4, N-(2-Chloro-4-fluorobenzyl)-N,3-dimethyl-4-(phenylsulfonyl)-1H-pyrrole-2,5-dicarboxamide] | < 8 µM |
| Cc1c(C(=O)N(C)Cc2ccc3ncccc3c2Cl)[nH]c(C(N)=O)c1S(=O)(=O)c1cc(F)cc(F)c1 [Example 49, N-[(5-chloro-6-quinolinyl)methyl]-4-[(3,5-difluorophenyl)sulfonyl]-N,3-dimethyl-1H-pyrrole-2,5-dicarboxamide] | < 8 µM |
| Cc1c(C(=O)N(C)Cc2ccc(Cl)cc2Cl)[nH]c(C(N)=O)c1S(=O)(=O)c1ccccc1 [Example 1, N-(2,4-Dichlorobenzyl)-N,3-dimethyl-4-(1-phenylsulfonyl)-1H-pyrrole-2,5-dicarboxamide] | < 8 µM |
| Cc1c(C(=O)N(C)Cc2ccsc2)[nH]c(C(N)=O)c1S(=O)(=O)c1ccccc1 [Example 38, N,3-dimethyl-4-(phenylsulfonyl)-N-(3-thienylmethyl)-1H-pyrrole-2,5-dicarboxamide] | < 8 µM |
| Cc1c(C(=O)N(C)Cc2ccc3ncccc3c2)[nH]c(C(N)=O)c1S(=O)(=O)c1cc(Cl)cc(Cl)c1 [Example 54, 4-[(3,5-dichlorophenyl)sulfonyl]-N,3-dimethyl-N-(6-quinolinylmethyl)-1H-pyrrole-2,5-dicarboxamide] | < 8 µM |
| Cc1c(C(=O)N(C)Cc2ccc(Cl)cc2Cl)[nH]c(C(N)=O)c1S(=O)(=O)N1CCCCC1 [Example 118, N-(2,4-dichlorobenzyl)-N,3-dimethyl-4-(1-piperidinylsulfonyl)-1H-pyrrole-2,5-dicarboxamide] | < 8 µM |
| Cc1c(C(=O)N(C)Cc2ccc3ncccc3c2Cl)[nH]c(C(N)=O)c1S(=O)(=O)c1cc(F)cc(Cl)c1 [Example 52, 4-[(3-chloro-5-fluorophenyl)sulfonyl]-N-[(5-chloro-6-quinolinyl)methyl]-N,3-dimethyl-1H-pyrrole-2,5-dicarboxamide] | < 8 µM |
| Cc1cc(C)cc(S(=O)(=O)c2c(C(N)=O)[nH]c(C(=O)N(C)Cc3ccccc3Cl)c2C)c1 [Example 25, N-(2-chlorobenzyl)-N,3-dimethyl-4-(3,5-dimethyiphenylsulfonyl)-1H-pyrrole-2,5-dicarboxamide] | < 8 µM |
